According to patent publication US4504655A, “Substances potentiating the activity of antibiotics and their production” (Takeda Chemical Industries, Ltd., priority 1981, dated 1985):
Values joined by “and” are separate entries in the source; they are usually repeats but may differ in a detail not shown here. Equal values may be shown once. “Also recorded” adds a separate entry of the source. Where a name gives a salt, the structure may show the parent alone. One block for each compound: values may come before it.

Columns and labels:
[1] = Stability in aqueous solution; format: physicochemical; settings: pH 3-9, heating at 60° C. for 10 minutes
Solubility = format: physicochemical
[2] = tested on: β-lactamase producing bacteria; settings: D. A. Leigh et al., 1981; cited from earlier work
β-lactamases = settings: D. A. Leigh et al., 1981; cited from earlier work
[3] = tested on: Escherichia coli IFO 12734; assay: Inhibition of growth of Escherichia coli in liquid culture (absorbance at 600 nm); format: cell-based
Description: Table 5: Inhibition of growth of Escherichia coli IFO 12734 in the copresence of F2 (obtained in Example 1) and cephalexin or cefmenoxime.
(§1) To 8 ml of YAB medium (1.75% Difco antibiotic medium No. 3, 0.5% Difco yeast extract) containing 12% (w/v) of sucrose, there were added 1 ml of water, 50 μg/ml cephalexin solution or 10 μg/ml cefmenoxime solution, and the medium was inoculated with 1 ml of a preculture in YAB medium at an early logarithmic growth phase and incubated with shaking at 37° C. for 2 hours. Thereafter, the absorbance of the culture broth was measured at 600 nm using a Shimadzu-Bausch & Lomb Spectronic 20 colorimeter.

Escherichia coli = assay: Observation of the culture broths under a phase contrast microscope; format: cell-based; settings: for Form of cells under phase contrast microscope: antibiotic alone, F2 or F3 not added
Description: as §1

[4] = tested on: Proteus mirabilis ATCC 21100; assay: Antibiotic-potentiating activity, paper disc growth inhibition zone, Proteus mirabilis ATCC 21100; format: cell-based
Description: (§2) *The test was performed using a bouillon agar medium containing the
antibiotic as specified and a paper disc, 8 mm in diameter. […]
*The test was performed under the same conditions as noted for Table 1
except for the test organism and the concentration of each coexisting

[5] = tested on: Escherichia coli IFO 12734; assay: Antibiotic-potentiating activity, paper disc growth inhibition zone, Escherichia coli IFO 12734; format: cell-based
Description: The potency of the compound of the formula (II) can be determined, for instance, by the cup method or paper disc method using bouillon agar containing 0.05 μg/ml of cefmenoxime with Escherichia coli IFO 12734 as the test organism. […]
as §2
antibiotic as specified and a paper disc, 8 mm in diameter.
**A paper disc, 8 mm in diameter, was impregnated with 25 μl of the […]

[6] = tested on: Escherichia coli IFO 12734; assay: Inhibition of growth of Escherichia coli in liquid culture (absorbance at 600 nm); format: cell-based; remark: listed apart in the source
[7] = petroleum ether, hexane, diethyl ether, benzene, ethyl acetate and chloroform
[8] = F3 of Example 5, 1 μg/ml in test solution, no addition
[9] = F3 of Example 5, 5 μg/ml in test solution, no addition
[10] = F3 of Example 5, 25 μg/ml in test solution, no addition
[11] = F3 of Example 5, 125 μg/ml in test solution, no addition
[12] = F3 of Example 5, 1000 μg/ml in test solution, no addition

Stability [1]: Stable
Solubility (Solubility; acetone): sparingly soluble
Solubility (Solubility; dimethyl sulfoxide): soluble
Solubility (Solubility; ethanol and pyridine): sparingly soluble
Solubility (Solubility; methanol): soluble
Solubility (Solubility; [7]): Insoluble
Solubility (Solubility; water): readily soluble
SMILES: CC(=O)NC1C(OC2CC(C(=O)NCCS(=O)(=O)O)NC2CO)OC(CO)C(OS(=O)(=O)O)C1O (stereo not shown) [monosodium salt of F2]

SMILES: O=C(O)[C@H]1/C(=C/CO)O[C@@H]2CC(=O)N21 [clavulanic acid]
Potentiation of activity of β-lactam antibiotics against β-lactamase producing bacteria [2]: synergistically potentiates their activity
Inactivation of β-lactam antibiotics by β-lactamases (β-lactamases): prevents inactivation

SMILES: CC1=C(C(=O)O)N2C(=O)[C@@H](NC(=O)[C@H](N)c3ccccc3)[C@H]2SC1 [cephalexin, reference compound]
Absorbance at 600 nm ([3]; 5 μg/ml cephalexin alone (F2 0 μg/ml)): 2.35 and 2.15
Form of cells under phase contrast microscope (Escherichia coli): much elongated form

Stability [1]: Stable
Solubility (Solubility; acetone): only sparingly soluble
Solubility (Solubility; dimethyl sulfoxide): soluble
Solubility (Solubility; ethanol and pyridine): only sparingly soluble
Solubility (Solubility; methanol): soluble
Solubility (Solubility; [7]): Insoluble
Solubility (Solubility; water): readily soluble
SMILES: CC(=O)NC1C(OC2CC(C(=O)O)NC2CO)OC(CO)C(OS(=O)(=O)O)C1O (stereo not shown) [F3 monosodium salt]

SMILES: CO/N=C(\C(=O)N[C@@H]1C(=O)N2C(C(=O)O)=C(CSc3nnnn3C)CS[C@H]12)c1csc(N)n1 [cefmenoxime, reference compound]
Absorbance at 600 nm ([3]; 1 μg/ml cefmenoxime alone (F2 or F3 0 μg/ml)): 1.95 and 1.90 and 2.9
Form of cells under phase contrast microscope (Escherichia coli): much elongated form
Diameter of growth inhibition zone ([4]; 0.01 μg/ml cefmenoxime alone (F2 or F3 0 μg/ml)): < 8 mm
Diameter of growth inhibition zone ([5]; 0.05 μg/ml cefmenoxime alone (F2, F3 or F4 0 μg/ml)): < 8 mm

SMILES: CC1(C)S[C@@H]2[C@H](/N=C/N3CCCCCC3)C(=O)N2[C@H]1C(=O)O [mecillinam, reference compound]
Diameter of growth inhibition zone ([4]; 0.05 μg/ml mecillinam alone (F2 or F3 0 μg/ml)): < 8 mm
Diameter of growth inhibition zone ([5]; 0.03 μg/ml mecillinam alone (F2, F3 or F4 0 μg/ml)): < 8 mm

SMILES: CC(=O)NC1C(OC2CC(C(=O)NCCS(=O)(=O)O)NC2CO)OC(CO)C(O)C1O (stereo not shown) [F4]
Diameter of growth inhibition zone ([5]; F4 of Example 7, 10 μg/ml in test solution, 0.03 μg/ml mecillinam): < 8 mm
Diameter of growth inhibition zone ([5]; F4 of Example 7, 10 μg/ml in test solution, 0.05 μg/ml cefmenoxime): < 8 mm
Diameter of growth inhibition zone ([5]; F4 of Example 7, 10 μg/ml in test solution, no addition): < 8 mm
Diameter of growth inhibition zone ([5]; F4 of Example 7, 100 μg/ml in test solution, 0.03 μg/ml mecillinam): 13 mm
Diameter of growth inhibition zone ([5]; F4 of Example 7, 100 μg/ml in test solution, 0.05 μg/ml cefmenoxime): 15 mm
Diameter of growth inhibition zone ([5]; F4 of Example 7, 100 μg/ml in test solution, no addition): < 8 mm
Diameter of growth inhibition zone ([5]; F4 of Example 7, 1000 μg/ml in test solution, 0.03 μg/ml mecillinam): 23 mm
Diameter of growth inhibition zone ([5]; F4 of Example 7, 1000 μg/ml in test solution, 0.05 μg/ml cefmenoxime): 26 mm
Diameter of growth inhibition zone ([5]; F4 of Example 7, 1000 μg/ml in test solution, no addition): < 8 mm

Stability [1]: Stable
Solubility (Solubility; acetone): Insoluble
Solubility (Solubility; dimethyl sulfoxide): soluble
Solubility (Solubility; [7]): Insoluble
Solubility (Solubility; water): readily soluble
SMILES: CC(=O)NC1C(OC2CC(C(=O)NCCS(=O)(=O)O)NC2CO)OC(CO)C(OS(=O)(=O)O)C1O (stereo not shown) [disodium salt of F2]
Solubility (Solubility; ethanol and pyridine): spargingly soluble; also recorded: sparingly soluble
Solubility (Solubility; methanol): spargingly soluble; also recorded: sparingly soluble

SMILES: CC(=O)NC1C(OC2CC(C(=O)O)NC2CO)OC(CO)C(OS(=O)(=O)O)C1O (stereo not shown) [F3]
Inhibition of growth of Escherichia coli ([3]; in the presence of cephalexin or cefmenoxime, decrease in absorbance): inhibits the growth of Escherichia coli
Swelling and bacteriolysis under phase contrast microscope (Escherichia coli; in the presence of cephalexin or cefmenoxime): partial swelling occurred and bacteriolysis proceeded
Elongation of cells under phase contrast microscope (Escherichia coli; in the presence of cephalexin or cefmenoxime, in dependence on the addition level): elongation was inhibited
Absorbance at 600 nm ([6]; final F3 (Example 5) 1 μg/ml, 1 μg/ml of cefmenoxime): 2.2
Absorbance at 600 nm ([6]; final F3 (Example 5) 1 μg/ml, no addition): 3.7
Absorbance at 600 nm ([6]; final F3 (Example 5) 10 μg/ml, 1 μg/ml of cefmenoxime): 0.6
Absorbance at 600 nm ([6]; final F3 (Example 5) 10 μg/ml, no addition): 3.7
Absorbance at 600 nm ([6]; final F3 (Example 5) 100 μg/ml, 1 μg/ml of cefmenoxime): 0.6
Absorbance at 600 nm ([6]; final F3 (Example 5) 100 μg/ml, no addition): 3.7
Diameter of growth inhibition zone ([4]; F3 of Example 5, 1 μg/ml in test solution, 0.01 μg/ml of cefmenoxime): 9 mm
Diameter of growth inhibition zone ([4]; F3 of Example 5, 1 μg/ml in test solution, 0.05 μg/ml of mecillinam): < 8 mm
Diameter of growth inhibition zone [4, 8]: < 8 mm
Diameter of growth inhibition zone ([4]; F3 of Example 5, 5 μg/ml in test solution, 0.01 μg/ml of cefmenoxime): 12 mm
Diameter of growth inhibition zone ([4]; F3 of Example 5, 5 μg/ml in test solution, 0.05 μg/ml of mecillinam): 9 mm
Diameter of growth inhibition zone [4, 9]: < 8 mm
Diameter of growth inhibition zone ([4]; F3 of Example 5, 25 μg/ml in test solution, 0.01 μg/ml of cefmenoxime): 21 mm
Diameter of growth inhibition zone ([4]; F3 of Example 5, 25 μg/ml in test solution, 0.05 μg/ml of mecillinam): 13.5 mm
Diameter of growth inhibition zone [4, 10]: < 8 mm
Diameter of growth inhibition zone ([4]; F3 of Example 5, 125 μg/ml in test solution, 0.01 μg/ml of cefmenoxime): 28.5 mm
Diameter of growth inhibition zone ([4]; F3 of Example 5, 125 μg/ml in test solution, 0.05 μg/ml of mecillinam): 19 mm
Diameter of growth inhibition zone [4, 11]: < 8 mm
Diameter of growth inhibition zone ([4]; F3 of Example 5, 1000 μg/ml in test solution, 0.01 μg/ml of cefmenoxime): 32.5 mm
Diameter of growth inhibition zone ([4]; F3 of Example 5, 1000 μg/ml in test solution, 0.05 μg/ml of mecillinam): 30 mm
Diameter of growth inhibition zone [4, 12]: < 8 mm
Diameter of growth inhibition zone ([5]; F3 of Example 5, 1 μg/ml in test solution, 0.03 μg/ml of mecillinam): < 8 mm
Diameter of growth inhibition zone ([5]; F3 of Example 5, 1 μg/ml in test solution, 0.05 μg/ml of cefmenoxime): 10 mm
Diameter of growth inhibition zone [5, 8]: < 8 mm
Diameter of growth inhibition zone ([5]; F3 of Example 5, 5 μg/ml in test solution, 0.03 μg/ml of mecillinam): < 8 mm
Diameter of growth inhibition zone ([5]; F3 of Example 5, 5 μg/ml in test solution, 0.05 μg/ml of cefmenoxime): 12.5 mm
Diameter of growth inhibition zone [5, 9]: < 8 mm
Diameter of growth inhibition zone ([5]; F3 of Example 5, 25 μg/ml in test solution, 0.03 μg/ml of mecillinam): 9 mm
Diameter of growth inhibition zone ([5]; F3 of Example 5, 25 μg/ml in test solution, 0.05 μg/ml of cefmenoxime): 15 mm
Diameter of growth inhibition zone [5, 10]: < 8 mm
Diameter of growth inhibition zone ([5]; F3 of Example 5, 125 μg/ml in test solution, 0.03 μg/ml of mecillinam): 17.5 mm
Diameter of growth inhibition zone ([5]; F3 of Example 5, 125 μg/ml in test solution, 0.05 μg/ml of cefmenoxime): 26 mm
Diameter of growth inhibition zone [5, 11]: < 8 mm
Diameter of growth inhibition zone ([5]; F3 of Example 5, 1000 μg/ml in test solution, 0.03 μg/ml of mecillinam): 28.5 mm
Diameter of growth inhibition zone ([5]; F3 of Example 5, 1000 μg/ml in test solution, 0.05 μg/ml of cefmenoxime): 38 mm
Diameter of growth inhibition zone [5, 12]: < 8 mm
